Results reported in PubChem BioAssay AID1963437 (Molecular Pharmacology Branch, DTP, NCI, 2024).

Tested on: OVCAR-8 complex spheroid, growth inhibition
Assay: Anticancer human tumor OVCAR-8 cell line growth inhibition [Asc];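 note: spheroids exposed to agents for 7 days before readout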;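 for viability, T/C: percent viability relative to DMSO vehicle wells taken as 100%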
Settings: for IC50: curve of first compound; for viability, T/C: stronger effect = lower value
Outline: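 Concentration series start at each agent's clinical Cmax, or at 10 microM when none is established, and drop in half-log steps; agents are applied alone or together to complex spheroids built with HUVEC and hMSC.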

## CCN1C(C(=O)NC23CCC(C(=O)O)(CC2)CC3)C(c2cccc(Cl)c2F)C2(C(=O)Nc3cc(Cl)ccc32)C12CCCCC2 (configuration not stated) + CNC(C)C(=O)NC1CN(S(=O)(=O)c2cccc(S(=O)(=O)N3CCC4CCC(C(=O)NC(c5ccccc5)c5ccccc5)N4C(=O)C(NC(=O)C(C)NC)C3)c2)CCC2CCC(C(=O)NC(c3ccccc3)c3ccccc3)N2C1=O
Second compound 0.00316 µM
  IC50: > 3 µM
Second compound 0.01 µM
  IC50: > 3 µM
Second compound 0.0316 µM
  IC50: > 3 µM
Second compound 0.1 µM
  IC50: > 3 µM
Second compound 0.316 µM
  IC50: > 3 µM
Second compound 1 µM
  IC50: > 3 µM
Second compound 0.00316 µM, first compound 0.00949 µM
  viability, T/C: 119%
Second compound 0.00316 µM, first compound 0.03 µM
  viability, T/C: 96.5%
Second compound 0.00316 µM, first compound 0.0949 µM
  viability, T/C: 104%
Second compound 0.00316 µM, first compound 0.3 µM
  viability, T/C: 97.9%
Second compound 0.00316 µM, first compound 0.949 µM
  viability, T/C: 106%
Second compound 0.00316 µM, first compound 3 µM
  viability, T/C: 110%
Second compound 0.01 µM, first compound 0.00949 µM
  viability, T/C: 98.4%
Second compound 0.01 µM, first compound 0.03 µM
  viability, T/C: 91.1%
Second compound 0.01 µM, first compound 0.0949 µM
  viability, T/C: 95%
Second compound 0.01 µM, first compound 0.3 µM
  viability, T/C: 84.8%
Second compound 0.01 µM, first compound 0.949 µM
  viability, T/C: 105%
Second compound 0.01 µM, first compound 3 µM
  viability, T/C: 107%
Second compound 0.0316 µM, first compound 0.00949 µM
  viability, T/C: 85.4%
Second compound 0.0316 µM, first compound 0.03 µM
  viability, T/C: 86.9%
Second compound 0.0316 µM, first compound 0.0949 µM
  viability, T/C: 92.7%
Second compound 0.0316 µM, first compound 0.3 µM
  viability, T/C: 102%
Second compound 0.0316 µM, first compound 0.949 µM
  viability, T/C: 102%
Second compound 0.0316 µM, first compound 3 µM
  viability, T/C: 118%
Second compound 0.1 µM, first compound 0.00949 µM
  viability, T/C: 85.3%
Second compound 0.1 µM, first compound 0.03 µM
  viability, T/C: 78.3%
Second compound 0.1 µM, first compound 0.0949 µM
  viability, T/C: 99.8%
Second compound 0.1 µM, first compound 0.3 µM
  viability, T/C: 88.1%
Second compound 0.1 µM, first compound 0.949 µM
  viability, T/C: 118%
Second compound 0.1 µM, first compound 3 µM
  viability, T/C: 103%
Second compound 0.316 µM, first compound 0.00949 µM
  viability, T/C: 98.8%
Second compound 0.316 µM, first compound 0.03 µM
  viability, T/C: 86.5%
Second compound 0.316 µM, first compound 0.0949 µM
  viability, T/C: 90.2%
Second compound 0.316 µM, first compound 0.3 µM
  viability, T/C: 78.3%
Second compound 0.316 µM, first compound 0.949 µM
  viability, T/C: 90.4%
Second compound 0.316 µM, first compound 3 µM
  viability, T/C: 97.5%
Second compound 1 µM, first compound 0.00949 µM
  viability, T/C: 80.5%
Second compound 1 µM, first compound 0.03 µM
  viability, T/C: 79.2%
Second compound 1 µM, first compound 0.0949 µM
  viability, T/C: 95.7%
Second compound 1 µM, first compound 0.3 µM
  viability, T/C: 84.2%
Second compound 1 µM, first compound 0.949 µM
  viability, T/C: 93.3%
Second compound 1 µM, first compound 3 µM
  viability, T/C: 112%
